# Biological target: T1, human recombinant mGluR5 (Homo sapiens, UniProt P41594)
# T1 construct: expressed in transfected cells; hygromycin and geneticin selection
# Experiment: positive modulation of mGluR5, calcium based FLIPR assay
# Conditions: HEK 293 cell line expressing human recombinant mGluR5; Ca2+ peak height after glutamate at approximately 5% basal stimulation; nonlinear regression
# In short: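 HEK293 cells with tetracycline-free induction, Calcium-4 dye-loaded in Ringer pH 7.4. Compound added 5 min before glutamate at ~5% of maximal effect, 1% DMSO. EC50 from peak Ca2+ fluorescence, normalized to basal glutamate (100%) and 10 μM CDPPB (200%), via nonlinear regression.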
# T1 sequence (P41594 21-1212): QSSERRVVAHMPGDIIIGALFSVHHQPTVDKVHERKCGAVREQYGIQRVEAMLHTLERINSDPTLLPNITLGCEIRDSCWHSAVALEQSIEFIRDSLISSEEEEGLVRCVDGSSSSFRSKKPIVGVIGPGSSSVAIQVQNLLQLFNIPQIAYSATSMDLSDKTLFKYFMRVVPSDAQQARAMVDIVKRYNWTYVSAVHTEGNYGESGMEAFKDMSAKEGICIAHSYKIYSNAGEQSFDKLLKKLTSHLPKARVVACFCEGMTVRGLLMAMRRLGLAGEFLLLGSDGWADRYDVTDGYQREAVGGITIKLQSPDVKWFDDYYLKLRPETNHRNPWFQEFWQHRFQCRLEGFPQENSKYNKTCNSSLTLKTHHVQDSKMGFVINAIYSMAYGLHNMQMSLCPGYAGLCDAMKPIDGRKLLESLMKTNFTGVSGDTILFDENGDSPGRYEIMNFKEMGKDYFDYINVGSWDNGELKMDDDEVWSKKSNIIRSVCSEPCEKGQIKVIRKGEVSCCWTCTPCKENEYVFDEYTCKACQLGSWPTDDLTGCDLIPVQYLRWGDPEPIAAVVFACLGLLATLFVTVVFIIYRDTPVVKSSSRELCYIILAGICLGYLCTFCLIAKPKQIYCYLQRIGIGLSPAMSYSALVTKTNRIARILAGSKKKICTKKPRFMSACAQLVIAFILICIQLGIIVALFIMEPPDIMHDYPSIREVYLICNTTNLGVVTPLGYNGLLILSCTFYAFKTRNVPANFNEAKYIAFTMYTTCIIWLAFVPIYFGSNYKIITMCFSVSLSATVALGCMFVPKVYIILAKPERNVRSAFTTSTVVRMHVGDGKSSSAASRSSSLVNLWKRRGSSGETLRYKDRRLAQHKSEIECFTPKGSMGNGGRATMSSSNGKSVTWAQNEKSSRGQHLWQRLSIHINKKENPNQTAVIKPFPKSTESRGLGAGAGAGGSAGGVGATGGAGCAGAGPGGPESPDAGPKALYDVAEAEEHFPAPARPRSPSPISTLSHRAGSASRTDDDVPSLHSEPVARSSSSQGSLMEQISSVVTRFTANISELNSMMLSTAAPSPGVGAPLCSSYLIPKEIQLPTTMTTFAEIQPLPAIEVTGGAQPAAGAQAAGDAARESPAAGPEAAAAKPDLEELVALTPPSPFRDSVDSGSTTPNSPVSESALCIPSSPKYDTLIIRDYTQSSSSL
row,EC50 [nM],Structure (SMILES)
1,410,COCc1cccc(C(=O)N2CCN(C(=O)c3ncn(-c4cccc(Cl)c4)n3)C(C)(C)C2)n1 [Example 38]
2,105,CCCOc1nc(C(=O)N2CCN(C(=O)c3ncn(-c4cccc(Cl)c4)n3)C(C)(C)C2)cc2ccccc12 [Example 87]
3,25,"CC(C)c1cccc(C(=O)N2CCN(C(=O)c3ncn(-c4ccccc4)n3)C(C)(C)C2)c1 [Example 96, [4-(3-Isopropyl-benzoyl)-2,2-dimethyl-piperazin-1-yl]-(1-phenyl-1H-[1,2,4]triazol-3-yl)-methanone]"
4,24,CC1(C)CN(C(=O)c2cccc(Cl)c2)CCN1C(=O)c1nnn(-c2ccccc2)n1 [Example 187]
5,931,CCC1(CC)CN(C(=O)c2cccc(Cl)c2)CCN1C(=O)c1ncn(-c2ccccc2)n1 [Example 313]
6,49,Cc1oc2ccc(F)cc2c1C(=O)N1CCN(C(=O)c2ncn(-c3ccccc3)n2)C(C)(C)C1 [Example 102]
7,64,CCc1ccc(C(=O)N2CCN(C(=O)c3ncn(-c4cccc(Cl)c4)n3)C(C)(C)C2)s1 [Example 83]
8,136,CN(C)c1cccc(C(=O)N2CCN(C(=O)c3ncn(-c4cccc(Cl)c4)n3)C(C)(C)C2)c1 [Example 44]
9,134,CC1(C)CN(C(=O)c2cc(Cl)ccc2F)CCN1C(=O)c1ncn(-c2ccccc2)n1 [Example 155]
10,188,"CC(C)c1cccc(C(=O)N2CCN(C(=O)c3ncn(-c4ccccc4)n3)C(C)(C)C2)n1 [Example 206, [4-(6-isopropyl-pyridine-2-carbonyl)-2,2-dimethyl-piperazin-1-yl]-(1-phenyl-1H-[1,2,4]triazol-3-yl)-methanone]"
11,104,CC1(C)CN(C(=O)c2cc3ccccn3c2)CCN1C(=O)c1ncn(-c2cccc(Cl)c2)n1 [Example 58]
12,57,CC1(C)CN(C(=O)c2cccc(Cl)c2)CCN1C(=O)c1ncn(-c2cccc(F)c2)n1 [Example 190]
13,291,CC1(C)CN(C(=O)c2csc(C(F)(F)F)n2)CCN1C(=O)c1ncn(-c2ccccc2)n1 [Example 152]
14,43,CCOc1nc(C(=O)N2CCN(C(=O)c3ncn(-c4ccccc4)n3)C(C)(C)C2)cc2ccccc12 [Example 120]
15,869,CCOc1cccc(C(=O)N2CCN(C(=O)c3ncn(-c4cccc(Cl)c4)n3)C(C)(C)C2)n1 [Example 62]
16,215,CC1(C)CN(C(=O)c2cccc(-c3ccncc3)n2)CCN1C(=O)c1ncn(-c2ccccc2)n1 [Example 111]
17,63,CC(=O)c1cccc(C(=O)N2CCN(C(=O)c3ncn(-c4cccc(Cl)c4)n3)C(C)(C)C2)n1 [Example 52]
18,65,COc1cccc(C(=O)N2CCN(C(=O)c3nnn(-c4cccc(F)c4)n3)C(C)(C)C2)n1 [Example 202]
19,104,Cc1c(C(=O)N2CCN(C(=O)c3ncn(-c4cccc(Cl)c4)n3)C(C)(C)C2)oc2c(C)cccc12 [Example 66]
20,58,CC1(C)CN(C(=O)c2cccc(C3(F)COC3)c2)CCN1C(=O)c1ncn(-c2cccc(Cl)c2)n1 [Example 23]
21,589,CC1(C)CN(C(=O)c2ccnc(C(F)(F)F)n2)CCN1C(=O)c1ncn(-c2ccccc2)n1 [Example 143]
22,168,CC1(C)CN(C(=O)c2cc(C(F)(F)F)ccn2)CCN1C(=O)c1ncn(-c2cccc(Cl)c2)n1 [Example 89]
23,120,Cc1ccc(Cl)cc1C(=O)N1CCN(C(=O)c2ncn(-c3cccc(Cl)c3)n2)C(C)(C)C1 [Example 57]
24,129,CC1(C)CN(C(=O)c2cc3ccccc3c(C3CC3)n2)CCN1C(=O)c1ncn(-c2cccc(Cl)c2)n1 [Example 204]
25,294,Cc1ccc2oc(C(=O)N3CCN(C(=O)c4ncn(-c5cccc(Cl)c5)n4)C(C)(C)C3)c(C)c2c1 [Example 50]

# More lines, now with the values behind:
row,Structure (SMILES),EC50 [nM]
1,Cc1oc2ccccc2c1C(=O)N1CCN(C(=O)c2ncn(-c3cccc(Cl)c3)n2)C(C)C1 (stereo not drawn) [Example 275],170
2,"COc1cccc(C(=O)N2CCN(C(=O)c3ncn(-c4cccc(F)c4)n3)C3(CC3)C2)n1 [Example 304, {4-[1-(3-Fluoro-phenyl)-1H-[1,2,4]-triazole-3-carbonyl]-4,7-diaza-spiro[2.5]oct-7-yl}-(6-methoxy-pyridin-2-yl)-methanone]",845
3,"COc1cccc(C(=O)N2CCN(C(=O)c3ncn(-c4cccc(Cl)c4)n3)[C@H](C)C2)n1 [Example 301, (R)-{4-[1-(3-Chloro-phenyl)-1H-[1,2,4]triazole-3-carbonyl]-3-methyl-piperazin-1-yl}-(6-methoxy-pyridin-2-yl)-methanone]",162
4,Cc1cccc(-n2cnc(C(=O)N3CCN(C(=O)c4cc(Br)c(Br)o4)CC3(C)C)n2)c1 [Example 8],53
5,COc1cccc(C(=O)N2CCN(C(=O)c3ncn(-c4cccc(C)c4)n3)CC2C)n1 (stereo not drawn) [Example 244],216
6,COc1cccc(C(=O)N2CCN(C(=O)c3ncn(-c4cccc(Cl)c4)n3)CC2C)n1 (stereo not drawn) [Example 211],264
7,"COc1cccc(C(=O)N2CCN(C(=O)c3ncn(-c4cccc(Cl)c4)n3)C[C@@H]2C)n1 [Example 252, (S)-{4-[1-(3-Chloro-phenyl)-1H-[1,2,4]triazole-3-carbonyl]-2-methyl-piperazin-1-yl}-(6-methoxy-pyridin-2-yl)-methanone]",278
8,"CCC[C@H]1CN(C(=O)c2ncn(-c3cccc(F)c3)n2)CCN1C(=O)c1cccc(OC)n1 [Example 261, (S)-{4-[1-(3-Fluoro-phenyl)-1H-[1,2,4]triazole-3-carbonyl]-2-propyl-piperazin-1-yl}-(6-methoxy-pyridin-2-yl)-methanone]",168
9,CC1(C)CN(C(=O)c2cccc(C3CC3)n2)CCN1C(=O)c1ncn(-c2cccc(F)c2)n1 [Example 184],33
10,"COc1nc(C(=O)N2CCN(C(=O)c3ncn(-c4ccc(F)c(C)c4)n3)C(C)(C)C2)cc2ccccc12 [Example 160, [1-(4-Fluoro-3-methyl-phenyl)-1H-[1,2,4]triazol-3-yl]-[4-(1-methoxy-isoquinoline-3-carbonyl)-2,2-dimethyl-piperazin-1-yl]-methanone]",207
11,COc1cc(C(=O)N2CCN(C(=O)c3ncn(-c4cccc(C)c4)n3)C(C)C2)ccc1C (stereo not drawn) [Example 288],372
12,Cc1ccc2oc(C(=O)N3CCN(C(=O)c4ncn(-c5cccc(Cl)c5)n4)C(C)C3)c(C)c2c1 (stereo not drawn) [Example 281],1500
13,COc1cc(C(=O)N2CCN(C(=O)c3ncn(-c4cccc(C)c4)n3)CC2C)ccc1C (stereo not drawn) [Example 235],314
14,"COc1cccc(C(=O)N2C[C@@H](C)N(C(=O)c3ncn(-c4cccc(C)c4)n3)[C@@H](C)C2)n1 [Example 302, (2R*,6S*)-4-[(6-methoxypyridin-2-yl)carbonyl]-2,6-dimethyl-1-{[1-(3-methylphenyl)-1H-1,2,4-triazol-3-yl]carbonyl}piperazine]",166
15,CC(C)COc1cccc(C(=O)N2CCN(C(=O)c3ncn(-c4cccc(Cl)c4)n3)C(C)C2)c1 (stereo not drawn) [Example 282],597
16,COc1cc(Cl)cc(C(=O)N2CCN(C(=O)c3ncn(-c4cccc(Cl)c4)n3)C(C)(C)C2)n1 [Example 17],45
17,"C[C@H]1CN(C(=O)c2ncn(-c3cccc(F)c3)n2)CCN1C(=O)c1cc(Br)c(Br)o1 [Example 256, (S)-[4-(4,5-Dibromo-furan-2-carbonyl)-3-methyl-piperazin-1-yl]-[1-(3-fluoro-phenyl)-1H-[1,2,4]triazol-3-yl]-methanone]",205
